Strand notation (5' to 3'): a small letter for the sugar, then the base; units joined by * are phosphorothioate-linked, units joined directly phosphodiester-linked; [ ] holds rarer units or linkages, { } end groups; capitals alone tell only the bases. k = constrained ethyl (cEt); [5mC] = 5-methylcytosine; d = 2'-deoxy (DNA)
Test system: human SMAD7 mRNA
Assay: Antisense inhibition of human SMAD7 mRNA expression in Hep3B cells by 3-10-3 cEt gapmers, 10,000 nM, electroporation (Example 2)
Type: cell-based
Conditions: Hep3B cells, 10,000 nM antisense oligonucleotide, electroporation, approximately 24 hours, RT-PCR primer probe set RTS5062, relative to untreated control cells
Procedure, shortened: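 Percent inhibition of SMAD7 mRNA, relative to untreated cells, after ~24 h exposure of electroporated Hep3B cells to 10,000 nM cEt gapmer; levels by qRT-PCR, corrected for total RNA.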

| Substance | % Inhibition [%] |
| --- | --- |
| 799953 (antisense kA*kG*kA*dA*dA*dA*dT*dG*d[5mC]*d[5mC]*d[5mC]*dA*d[5mC]*k[5mC]*kA*kG) [compound 799953] | 0 |
| 798929 (antisense kT*kA*kT*dT*dA*dG*d[5mC]*dA*dG*d[5mC]*dA*dA*dA*kG*kT*kA) [compound 798929] | 41 |
| 800098 (antisense kT*kT*kT*dT*dA*dG*dG*dG*d[5mC]*d[5mC]*dT*d[5mC]*dA*kA*kA*kA) [compound 800098] | 1 |
| 800038 (kT*kG*k[5mC]*dT*d[5mC]*d[5mC]*dT*d[5mC]*d[5mC]*d[5mC]*dT*d[5mC]*dG*k[5mC]*kT*kG; antisense) [compound 800038] | 2 |
| 790507 (kA*kA*kG*dA*dA*dG*dT*dT*dG*dG*dG*dA*dA*kT*k[5mC]*kT; antisense) [compound 790507] | 0 |
| 798841 (k[5mC]*kT*kG*dA*d[5mC]*dT*d[5mC]*dT*dT*dG*dT*dT*dG*kT*k[5mC]*k[5mC]; antisense) [compound 798841] | 0 |

Same assay, conditions: Hep3B cells, electroporation with 10,000 nM antisense oligonucleotide, approximately 24 hours, RTS5062, percent inhibition of SMAD7 mRNA relative to untreated control cells

| Substance | % Inhibition [%] |
| --- | --- |
| 799670 (antisense kT*k[5mC]*kT*dG*dA*dG*dA*d[5mC]*dT*dA*dT*dG*dA*k[5mC]*kA*kG) [compound 799670] | 51 |

Same assay, conditions: Hep3B cells, electroporation with 10,000 nM antisense oligonucleotide, approximately 24 hours, SMAD7 mRNA by RT-PCR (RTS5062), relative to untreated control cells

| Substance | % Inhibition [%] |
| --- | --- |
| 830076 (k[5mC]*kA*k[5mC]*dA*dT*dT*d[5mC]*dA*dG*dG*dG*dT*dG*kT*k[5mC]*kA; antisense) [compound 830076] | 43 |
| 798814 (kA*k[5mC]*k[5mC]*dA*dG*dT*dG*dT*dG*dA*d[5mC]*d[5mC]*dG*kA*kT*k[5mC]; antisense) [compound 798814] | 25 |
| 799350 (kA*kT*kT*d[5mC]*d[5mC]*dT*dA*dG*d[5mC]*dG*d[5mC]*dA*d[5mC]*kT*k[5mC]*kG; antisense) [compound 799350] | 31 |
| 799333 (kA*kG*kA*dA*dA*dA*d[5mC]*d[5mC]*dT*dG*dG*dA*dA*kG*kG*kG; antisense) [compound 799333] | 24 |
| 800108 (antisense kG*kG*kA*dA*dT*d[5mC]*dT*dA*dG*dA*dA*dA*dA*k[5mC]*kA*k[5mC]) [compound 800108] | 12 |
| 798813 (k[5mC]*k[5mC]*kG*dA*dT*d[5mC]*d[5mC]*d[5mC]*d[5mC]*dA*dG*dG*d[5mC]*kT*k[5mC]*k[5mC]; antisense) [compound 798813] | 23 |
| 798843 (k[5mC]*kT*kG*d[5mC]*dA*d[5mC]*d[5mC]*dA*dG*d[5mC]*dT*dG*dA*k[5mC]*kT*k[5mC]; antisense) [compound 798843] | 37 |
| 830106 (k[5mC]*kA*kT*dT*dA*dA*dG*d[5mC]*d[5mC]*d[5mC]*dG*d[5mC]*dT*k[5mC]*kT*k[5mC]; antisense) [compound 830106] | 33 |
| 800064 (antisense kA*kT*kG*dG*dA*dG*dG*dT*dG*d[5mC]*d[5mC]*d[5mC]*dG*kT*k[5mC]*kA) [compound 800064] | 0 |
| 800000 (k[5mC]*kA*kT*dT*dT*dA*dG*dG*dA*dA*d[5mC]*dA*dA*kG*kG*kG; antisense) [compound 800000] | 37 |
| 830054 (kT*kG*kG*dG*dT*dG*dA*dG*dT*dA*dA*d[5mC]*d[5mC]*kA*kG*k[5mC]; antisense) [compound 830054] | 48 |
| 798693 (antisense kG*k[5mC]*k[5mC]*dG*dG*dG*d[5mC]*dG*d[5mC]*dA*d[5mC]*dG*dG*k[5mC]*kT*k[5mC]) [compound 798693] | 0 |
| 830077 (k[5mC]*k[5mC]*kA*d[5mC]*dA*dT*dT*d[5mC]*dA*dG*dG*dG*dT*kG*kT*k[5mC]; antisense) [compound 830077] | 37 |
| 830153 (antisense kG*k[5mC]*k[5mC]*dT*d[5mC]*dA*dG*d[5mC]*dA*dG*dT*dT*dA*kA*kT*kA) [compound 830153] | 21 |
| 799888 (antisense kG*kG*kA*d[5mC]*dA*dA*dA*dA*d[5mC]*d[5mC]*d[5mC]*d[5mC]*dT*kA*kG*kA) [compound 799888] | 22 |
| 830112 (kG*k[5mC]*k[5mC]*d[5mC]*d[5mC]*dA*dT*dT*d[5mC]*dA*dT*dT*dA*kA*kG*k[5mC]; antisense) [compound 830112] | 23 |
| 799927 (antisense kT*k[5mC]*k[5mC]*d[5mC]*dA*dA*dG*d[5mC]*d[5mC]*dT*dA*d[5mC]*dA*kT*kA*kT) [compound 799927] | 0 |

Same assay, conditions: Hep3B cells, electroporation with 10,000 nM antisense oligonucleotide, approximately 24 hours, primer probe set RTS5062, relative to untreated control cells

| Substance | % inhibition of SMAD7 mRNA expression [%] | % Inhibition [%] |
| --- | --- | --- |
| 798934 (antisense kG*k[5mC]*kA*dA*dG*d[5mC]*dA*d[5mC]*dT*d[5mC]*dA*dG*dG*kA*kG*kG) [compound 798934] | 40 |  |
| 799323 (antisense k[5mC]*k[5mC]*kA*dG*dG*dA*dG*dG*dG*dT*dA*dT*dG*k[5mC]*kA*k[5mC]) [compound 799323] | 60 |  |
| 799202 (antisense kT*kT*kT*dT*dT*dT*dT*d[5mC]*dA*dG*dG*dA*dG*kT*k[5mC]*k[5mC]) [compound 799202] | 33 |  |
| 799006 (k[5mC]*kG*k[5mC]*dT*d[5mC]*d[5mC]*dT*dG*d[5mC]*dA*d[5mC]*dA*d[5mC]*kG*k[5mC]*kG; antisense) [compound 799006] | 0 |  |
| 798991 (antisense k[5mC]*k[5mC]*kT*dG*dA*d[5mC]*dA*dA*dG*dT*dG*dA*dA*kA*kT*kG) [compound 798991] | 23 |  |
| 790630 (kG*kG*kA*dA*d[5mC]*dA*dT*dA*dA*dA*d[5mC]*dT*d[5mC]*k[5mC]*kT*kT; antisense) [compound 790630] |  | 0 |
| 799177 (antisense kT*kT*kA*dT*dG*dT*dT*dA*dA*dA*dG*dT*d[5mC]*kT*kA*kA) [compound 799177] |  | 0 |
| 799210 (kT*kA*kA*dA*dT*dA*dA*dT*dG*dA*dT*dG*d[5mC]*kT*kT*kA; antisense) [compound 799210] |  | 10 |
| 799152 (antisense kT*kG*kT*d[5mC]*dA*dG*d[5mC]*d[5mC]*dT*dA*dG*dG*dA*kT*kG*kG) [compound 799152] | 33 |  |
| 799071 (antisense kG*kG*kA*dA*dG*dG*dG*dA*dA*dT*dA*dA*dG*kA*k[5mC]*kA) [compound 799071] | 44 |  |
| 799063 (antisense kT*kG*kG*dT*dT*d[5mC]*dT*dG*dG*dT*dT*d[5mC]*dG*kG*k[5mC]*k[5mC]) [compound 799063] | 9 |  |
| 799441 (antisense k[5mC]*kT*kA*dG*dA*dA*dA*dA*dG*dT*dT*dA*dA*kG*kA*kG) [compound 799441] | 22 |  |
| 799081 (antisense kT*k[5mC]*kT*d[5mC]*dA*dG*dG*dG*dA*dG*dA*dT*d[5mC]*k[5mC]*kA*kG) [compound 799081] |  | 28 |

Same assay, conditions: Hep3B cells, electroporation, 10,000 nM antisense oligonucleotide, approximately 24 hours, RTS5062, relative to untreated control cells

| Substance | % inhibition of SMAD7 mRNA expression [%] |
| --- | --- |
| 799282 (antisense kA*k[5mC]*kA*dG*dA*d[5mC]*d[5mC]*dA*d[5mC]*dA*dG*d[5mC]*dA*k[5mC]*k[5mC]*kT) [compound 799282] | 16 |

Same assay, conditions: SMAD7 mRNA, Hep3B cells, 10,000 nM antisense oligonucleotide, electroporation, approximately 24 hours, primer probe set RTS5062, relative to untreated control cells

| Substance | % Inhibition [%] |
| --- | --- |
| 772611 (kT*k[5mC]*k[5mC]*dG*dA*dG*dG*d[5mC]*dA*dA*dA*dA*dG*k[5mC]*k[5mC]*kA; antisense) [compound 772611] | 14 |
| 800769 (antisense kG*k[5mC]*kA*dG*dG*d[5mC]*dG*dA*d[5mC]*dA*dG*d[5mC]*dA*kG*k[5mC]*kA) [compound 800769] | 49 |
| 800787 (antisense k[5mC]*kA*kG*dT*dA*dG*dA*dG*d[5mC]*d[5mC]*dT*d[5mC]*d[5mC]*k[5mC]*k[5mC]*kA) [compound 800787] | 38 |

Same assay, conditions: SMAD7 mRNA, Hep3B cells, electroporation with 10,000 nM antisense oligonucleotide, approximately 24 hours, primer probe set RTS5062, relative to untreated control cells

| Substance | % Inhibition [%] |
| --- | --- |
| 829833 (kG*kT*kG*dA*d[5mC]*d[5mC]*dG*dA*dT*d[5mC]*d[5mC]*d[5mC]*d[5mC]*kA*kG*kG; antisense) [compound 829833] | 0 |
| 829990 (kG*kG*kG*d[5mC]*d[5mC]*dG*d[5mC]*dG*dA*dG*dG*d[5mC]*dG*kG*kT*kG; antisense) [compound 829990] | 35 |
| 829886 (antisense kG*kT*kG*dG*dT*d[5mC]*dA*dT*dT*dG*dG*dG*d[5mC]*k[5mC]*kG*k[5mC]) [compound 829886] | 6 |
| 830012 (antisense kG*k[5mC]*k[5mC]*dA*dG*dT*d[5mC]*dT*d[5mC]*dA*dA*dA*dT*kG*kG*kG) [compound 830012] | 37 |
| 829838 (k[5mC]*k[5mC]*k[5mC]*dA*dG*dT*dA*dT*dG*d[5mC]*d[5mC]*dA*d[5mC]*k[5mC]*kA*k[5mC]; antisense) [compound 829838] | 28 |
| 829888 (antisense kG*kT*k[5mC]*d[5mC]*dA*d[5mC]*dG*dG*d[5mC]*dT*dG*d[5mC]*dT*kG*k[5mC]*kA) [compound 829888] | 47 |
| 829871 (antisense kG*kT*k[5mC]*d[5mC]*dA*dG*dT*dG*dT*dG*dG*d[5mC]*dG*kG*kA*k[5mC]) [compound 829871] | 1 |
| 829911 (antisense k[5mC]*kG*kA*d[5mC]*d[5mC]*dA*dA*dA*dG*dA*dG*dT*dT*kT*kG*k[5mC]) [compound 829911] | 52 |
| 829845 (antisense kT*k[5mC]*k[5mC]*dG*dA*dA*dT*dT*dG*dA*dG*d[5mC]*dT*kG*kT*k[5mC]) [compound 829845] | 40 |
